# Data reported in patent US20220313626A1, “SMALL MOLECULE INHIBITORS FOR TREATING CANCER IN A SUBJECT HAVING TUMORS WITH HIGH INTERSTITIAL PRESSURE” (GUANGZHOU MAXINOVEL PHARMACEUTICALS CO., LTD., priority 2019, published 2022).
# Test system: MC-38-hPD-L1 tumor cells
# Experiment: Anti-tumor efficacy in MC-38-hPD-L1 models
# Type: in vivo
# Settings: MC-38-hPD-L1, C57BL/6-hPD-1 mice; 20 mg/kg, IP, BIW; 19 days
# Procedure: Materials required for the experiment: Antibody: PD-L1 antibody Durvalumab, Product specifications: 120 mg/2.4 mL(50 mg/mL), Lot No.: 041E17C, Manufacture: AstraZeneca, purchased from Hongkong Mingchuang Medical Limited, storage at 2-8° C. Experimental animal: 120 C57BL/6-hPD-1 mice, female, 6˜8 weeks old, 18˜21 g, purchased from Jiangsu Gem Pharmatech Co. Ltd. Formulation material: castor oil (Cremophor RH40), CAS No.: 61788-85-0, Lot No.: 29761847G0, purchased from Shanghai Xietai Chemical Co. Ltd.; β-cyclodextrin (SBE-β-CD), CAS No.: 128446-35-5, Lot No.: R1804474, purchased from Shanghai Shaoyuan Chemical Co. Ltd.; DMEM culture medium, CAS No.: 11995-065, Lot No.: 2025378, purchased from Gibco Co. Ltd.; PBS, Art. No.: SH30256.01, Lot No.: AB10141338, purchased from HyClone Co. Ltd.; Fetal bovine serum: CAS No.: 10099-141, Lot No.: 1966174C, purchased from Gibco Co. Ltd.; hygromycinB: CAS No.: 10687010, Lot No.: HY069-L12 purchased from Invitrogen.
# Cell culture: The MC-38 tumor cells (NCI) were maintained in vitro as a monolayer culture in DMEM medium supplemented with 10% heat inactivated fetal bovine serum, 100 μg/mL hygromycinB at 37° C. in an atmosphere of 5% CO2 in air. The tumor cells were routinely subcultured three times weekly by trypsin-EDTA treatment. The cells growing to a confluency around 70%-80% were harvested and counted for tumor inoculation.
# Tumor cell inoculation and group administration: The 100 uL cell suspension containing 1×10^6 MC-38-hPD-L1 tumor cells (cells suspended in base DMEM medium) was inoculated into right dorsal subcutaneous area in mice. 6 days after inoculation, 60 tumor-bearing mice with transplanted tumors ranging from 31.49 mm^3 to 110.26 mm^3 were selected, stratified randomization was used to group and start the administration on the day of grouping.
# Preparation of test substances: Preparation of formulation: 800 mL of sterile water was added into the volumetric flask with magnetic stirring to have a vortex. 100 g of castor oil (Cremophor RH40) was added with a spoon slowly into the vortex and the solution was kept stirring. 200 g of β-cyclodextrin (SBE-β-CD) was added while the solution was kept stirring until the solution was clear, and the total volume was set to 1000 mL, which contained 10% (w/v) Cremophor RH40+20% (w/v) an aqueous solution of SBE-β-CD.
# Preparation of Compound Suspension: 150.92 mg compound was weighed and 12.5 mL 10% (w/v) Cremophor RH40+20% (w/v) SBE-β-CD aqueous solution were added. The suspension solution with a concentration of 12.0 mg/mL was obtained by vortex for 2 minutes and ultrasound for 30 minutes. 5.0 mL of the compound suspension solution with concentration of 12.0 mg/mL was pipetted and 5.0 mL aqueous formulation solution was added. The suspension solution with a concentration of 6.0 mg/mL was obtained by vortex for 1 minute and sonicated by ultrasound for 5 minutes. 2.0 mL of the compound suspension solution with concentration of 6.0 mg/mL was pipetted and […] was added. The suspension solution with a concentration of 3.0 mg/mL was obtained by vortex for 1 minute and sonicated by ultrasound for 5 minutes. Compound suspension solution was prepared once a day.
# Preparation of hPD-L1 antibody: 0.12 mL PD-L1 antibody Durvalumab (50 mg/mL) original solution was pipetted and divided into […] in 5 mL sterile centrifugal tube, which were packed with each containing 6.0 mg. They were stored in refrigerator at 4° C. Before administration, a raw solution containing 0.12 mL and 50 mg/mL was taken, and 2.88 mL 0.9% sodium chloride solution was added to make the solution thoroughly mixed. 3 mL Duvalumab solution with the concentration 2 mg/mL was obtained.
# Procedure: The mice in the vehicle group were weighed and recorded in the electronic balance according to their numbers. […]
substance,measurement,value
Durvalumab [reference compound],TGI,48.17%
same,Tumor Volume,341.19 ± 56.59 mm^3
